Assays:
[1] = Cytotoxicity: inhibition of CD4+ T-cell (CEM) proliferation; type: cell-based; settings: human, CEM/0 cells (CD4+ T-cells), 50 % cytostatic concentration, mean±SD, n=2-3
[2] = Enzyme-catalyzed hydrolysis in human CD4+ T-lymphocyte CEM cell extracts; type: in vitro ADME; settings: CEM/0 cell extracts (CD4+ T-lymphocytes); human CD4+ T-lymphocyte CEM cell extracts, 37 °C; read-out: CEM/0 cell extracts t 1/2 (converted)
Experimental: The stability of prodrugs 6 and the γ‐alkyl‐NTPs 7 was further investigated in human CD4 ^+ T‐lymphocyte CEM cell extracts. […] Thus, an enzymatic cleavage reaction took place. Half‐lives as low as 0.4 h (6 az) to 5.2 h (6 dz) were determined. […] This is in accordance to our previous results for the DiPPro‐[ ^17 , ^18 ] or the TriPPPro‐compounds 5.[ ^22 , ^23 ] In all cases we observed the predominant formation of γ‐alkyl‐d4TTPs 7 and d4TDP 2 d in very low concentration (Figure 2 B) but no NTP formation was detected, in contrast to the studies using the previously described TriPPPro compounds 5.[ ^23 , ^24 ] However, the difference to the compounds bearing long lipophilic acyl groups was not very pronounced (2‐ to 3‐fold). In the case of γ‐(AB‐C4,alkyl‐C18)‐d4TTP 6 cz, γ‐C18‐d4TTP 7 z was detected as the main product. After 8 h incubation, the ratio of γ‐C18‐d4TTP 7 z and d4TDP 2 d was 5:1. This was in sharp contrast to the studies performed with TriPPPro compounds 5.[ ^23 , ^24 ] There, it was almost impossible to detect significant concentrations of d4TTP due to its fast dephosphorylation to form first d4TDP and finally d4TMP 2 m. […] The formation of thymine or d4TTP 2 t from γ‐C18‐d4TTP 7 z was not detected (Supporting Information, Figure SI2).
(§1) ProLab 300 from Schott Co.. Thermomixer: Eppendorf Thermomixer 5436 and CellMedia Thermoschüttler basic were used. […]
Enzyme-catalyzed hydrolysis of γ-(AB,alkyl)-d4TTPs 6, γ-alkyl-d4TTPs 7,15 and TriPPPros 5 in CEM cell extracts:
18 µL of the appropriate 50 mM DMSO-d6 stock solution was diluted to 6.0 mM hydrolysis solution by addition of 132.0 µL DMSO-d6.
7-10 different samples including 10 µL water and 10 µL hydrolysis solution were prepared in 2 mL Eppendorf® vials. The reaction was started by addition of 50 µL human CEM cell extract and the mixture was incubated at 37 °C for different time periods. The reactions were stopped by addition of 150 μL MeOH. The solution was kept on ice for 5 min followed by centrifugation for 5 min (13000 rpm).
The supernatants were filtered (Chromafil® RC-20/15 MS, 0.2 μm) and stored in liquid nitrogen. When testing, the samples were defrosted and injection volume with 80 μL was used for HPLC analysis. The calculation of t1/2 was performed analogously to that for the chemical hydrolysis studies.
(§2) Preparation of cell extracts: Human CD4+ T-lymphocyte CEM cells were grown in RPMI-1640-based cell culture medium to a final density of ~3·10^6 cells/ml. Then, cells were centrifuged for 10 min at 1,250 rpm at 4 °C, washed twice with cold PBS, and the pellet was re-suspended at 10^8 cells/ml and sonicated (Hielscher Ultrasound Techn., 100% amplitude, 3·times for 10 sec) to destroy cell integrity. The resulting cell suspension was then centrifuged at 10,000 rpm to remove cell debris, and the supernatant divided in aliquots before being frozen at -80 C and used.

HIV-1(IIIB) = test: Anti-HIV activity assay, HIV-1-infected wild-type CEM/0 cell cultures; type: cell-based; settings: Human immunodeficiency virus 1, IIIB, CCRF-CEM, read-out: EC50 CEM/0 HIV-1
Experimental: (§3) γ‐(AB,alkyl)‐d4TTP prodrugs 6 and the γ‐alkyl‐d4TTPs 7 were evaluated for their ability to inhibit the replication of HIV in HIV‐1‐ or HIV‐2‐infected wild‐type CEM/0 as well as mutant thymidine‐kinase‐deficient CEM cell cultures (CEM/TK^−). For comparison, two TriPPPro derivatives 5 were also included in this assay.
(§4) Anti-HIV activity assay: Inhibition of HIV-1(IIIB)- and HIV-2(ROD)-induced cytopathicity in wild-type CEM/0 and thymidine kinase-deficient CEM/TK- cell cultures was measured in microtiter 96-well plates containing ~3·105 CEM cells/mL infected with 100 CCID50 of HIV per milliliter and containing appropriate dilutions of the test compounds. After 4−5 days of incubation at 37 °C in a CO2-controlled humidified atmosphere, CEM giant (syncytium) cell formation was examined microscopically. […]
(§5) was defined as the compound concentration required to inhibit HIV-induced giant cell formation by 50%. […]
(§6) The result was visualized by fluorescence imaging. […]
as §6

[3] = Chemical hydrolysis in aqueous phosphate buffer (PBS, pH 7.3); type: physicochemical; settings: aqueous 25 mM phosphate buffer, pH 7.3, 37 °C; removal of AB group; n.h. = no hydrolysis observed through cleavage of AB-mask
Experimental: γ‐(AB,alkyl)‐NTP prodrugs 6 and γ‐alkyl‐NTPs 7 were incubated in aqueous phosphate buffer (PBS, 25 mM, pH 7.3), or were exposed to pig liver esterase (PLE) in phosphate buffer (PBS) and to human CD4^+ T‐lymphocyte cell extracts to study their stability and the product distribution. The hydrolysis mixtures were analyzed by means of analytical rp‐18‐HPLC. The calculated half‐lives of prodrugs 6 (Table 1, t 1/2) reflect the removal of the bioreversible AB group to yield γ‐alkyl‐NTPs 7. Possible hydrolysis pathways and products are summarized in Scheme 4.
As hydrolysis products, a predominant formation of γ‐alkyl‐d4TTPs 7 and a very small amount of d4TDP […] was detected (approximately 3 %). After consumption of the starting material, no further increase of d4TDP concentration was observed. This supports the hypothesis that only the double‐γ‐esterified d4TTP prodrugs 6 were prone to a bond breakage between the γ‐ and β‐phosphate. […] In contrast to previous studies with TriPPPro‐NTPs 5 containing a second cleavable mask (first generation NTP prodrugs),[ ^23 , ^24 , ^25 ] no d4TTP was detected in these studies using 6 or 7. A side reaction occurred during the studies using compounds 7 that led to the formation of thymine by the cleavage of the glycosidic bond as reported before.[ ^19 , ^22 ]
as §1
Chemical hydrolysis of prodrugs of γ-(AB,alkyl) d4TTP 6 as well as the γ-alkyl-NTPs 7,15:
Stock solutions (50mM in DMSO-d6) of compounds 6,7 were prepared. After dilution of 11 µL stock solution with 100 µL milliQ water and 189 µL DMSO-d6 to 1.9mM hydrolysis solutions the reaction was started by addition of 300 µL phosphate buffer saline (PBS, 50mM, pH 7.3). The solution was incubated at 37 C in a thermomixer. An initial aliquot (25 µL) was taken directly and analyzed by analytical HPLC at 265-266 nm. Further aliquots were taken for monitoring the kinetic hydrolysis. The exponential decay curves (pseudo-first order) based on absolute integral values were calculated with commercially available software (OriginPro 9.0G) and yielded the half-lives t1/2 of the prodrugs via one determination. […]
The calculation of t1/2 was performed analogously to that for the chemical hydrolysis studies.
as §2
(1 picture or pasted object on this page, not shown here)

HIV-2(ROD) [4] = test: Anti-HIV activity assay, HIV-2-infected thymidine-kinase-deficient CEM/TK- cell cultures; type: cell-based; settings: Human immunodeficiency virus 2, CEM-TK(-), read-out: EC50 CEM/TK− HIV-2, thymidine-kinase-deficient CEM/TK− cells, HIV-2; mean±SD, n=2-3
Experimental: as §3, §4, §5, §6, §6

[5] = molecular target: T1, HIV reverse transcriptase (RT) (Human immunodeficiency virus type 1 group M subtype B, UniProt P03366); test: Primer extension assay with HIV-RT; type: biochemical, HIV-1; settings: incubation 10, 20, 40 and 60 min; conversion of primer to n+1 product
T1 construct: reverse transcriptase (RT; an HIV‐encoded RNA‐dependent DNA polymerase); purchased Roboklon
Experimental: Primer-extension reactions:
HIV-RT and human DNA polymerase β and γ were obtained from Roboklon, human DNA polymerase α was obtained from Chimerx.
The primers and templates were purchased from Life Technologies and Microsynth. The fluorescent labeled primer was purchased
from Metabion and Microsynth. The gels were prepared with the size of 450mm×200mm×0.4mm according to the electrophoresis
5’-FITC and 5’-Cy3 labeled Primer-sequence:
The primer extension assays were performed under the following conditions:
FITC and Cy3 labeled primer extension assay:
1) Hybridization: After 5 min incubation at 95 °C in 20 mM Tris-HCl (pH 7.6) and 50 mM NaCl, the hybridization/annealing of the
primer to the template strand was achieved by a cooling phase from 95 °C to […] lasted more than 2 hours. […]
The assays were separated using a denaturating PAGE (15%). The result was visualized by fluorescence imaging. […]
as §6, §6

HIV-2(ROD) [6] = test: Anti-HIV activity assay, HIV-2-infected wild-type CEM/0 cell cultures; type: cell-based; settings: Human immunodeficiency virus 2, CCRF-CEM, read-out: EC50 CEM/0 HIV-2
Experimental: as §3, §4, §5, §6, §6

CCCCCCCCCCCOP(=O)(O)OP(=O)(O)OP(=O)(O)OCC1C=CC(n2cc(C)c(=O)[nH]c2=O)O1 (stereo not shown) [7 x, γ‐C11‐d4TTP]
CC50 [1]: 78 ± 10 µM
half-life at 0.86 mM [2]: > 30 h
EC50 (HIV-1(IIIB)): 0.89 ± 0.28 µM
PBS pH 7.3 t 1/2 [3]: n.h.^[c]
EC50 (HIV-2(ROD) [4]): 16 ± 5 µM
comparison of substrate properties for HIV-RT [5]: better substrates
EC50 (HIV-2(ROD) [6]): 0.26 ± 0.083 µM

Reference: paper PMC7756582, “Prodrugs of γ‐Alkyl‐Modified Nucleoside Triphosphates: Improved Inhibition of HIV Reverse Transcriptase” (Angewandte Chemie (International Ed. in English), 2020)
